Among the test systems are SW-620; K562; A498; IGROV-1; SN12C; A549; DU-145; SNB-19; LOX IMVI; HCT-15; HT-29; HCC 2998; HOP-62; RPMI-8226; CCRF-CEM; BT-549; MCF7; PC-3; NCI-H226; SR.
Common to all, as to test: inhibition of tumour cell growth, NCI panel, 48 h

Structures are written as SMILES.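 The compound was tested at five concentrations on cells cultured in 96-well plates, with a 48-hour exposure period. GI50 = concentration required for 50% inhibition of growth.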 Active and inactive are the calls of the source. No stated cut-off is given here; in the data, active = GI50 up to about 1.1 µM and inactive = higher. Bounds are passed on as bounds.

In the case of `COc1ccc(/C=C2\CCCCCC2=O)cc1`, the GI50 in the experiment on SW-620, in the experiment with K562, in the experiment on A498, in the experiment on IGROV-1, in the experiment on SN12C and in the experiment on A549 was > 100 µM (inactive) in each case. Also, the GI50 in the experiment on DU-145 was > 100 µM (inactive); with SNB-19 it was > 100 µM (inactive); in the experiment with LOX IMVI, > 100 µM (inactive); in the experiment with HCT-15 it was greater than 100 µM; with HT-29, > 100 µM (inactive); in the experiment on HCC 2998, > 100 µM (inactive). Moreover, the GI50 in the experiment with HOP-62, in the experiment on RPMI-8226, in the experiment on CCRF-CEM, in the experiment on BT-549, in the experiment on MCF7 and in the experiment on PC-3 was > 100 µM (inactive) in each case. In addition, the GI50 in the experiment with NCI-H226 and with SR was > 100 µM (inactive) throughout.
Regarding `CC12OOC(c3ccccc31)c1c2ccc2ccccc12` (stereo not given), the GI50 was 1.95 µM (inactive) in the experiment on SW-620; 1.65 µM (inactive) with K562; 17.6 µM (inactive) in the experiment with A498; 1.53 µM (inactive) in the experiment on IGROV-1; 15.8 µM (inactive) in the experiment on SN12C; 3.73 µM (inactive) in the experiment with A549. Moreover, the GI50 in the experiment with DU-145 was 18.5 µM (inactive); with SNB-19, 16.7 µM (inactive); in the experiment on LOX IMVI it was 2.12 µM (inactive); with HCT-15 it was 2.17 µM; in the experiment on HT-29, 2.62 µM (inactive); in the experiment with HCC 2998, 5.05 µM (inactive). The GI50 is 16.2 µM (inactive) with HOP-62; 2.45 µM (inactive) with RPMI-8226; 0.904 µM (active) with CCRF-CEM; 10.4 µM (inactive) with BT-549; 13.2 µM (inactive) with MCF7; 5.66 µM (inactive) in the experiment on PC-3. In addition, the GI50 was 18.7 µM (inactive) in the experiment with NCI-H226 and 0.807 µM (active) in the experiment with SR.
Turning to `CCOC(=O)C(N)CSC(=O)NC` (stereo not given), the GI50 in the experiment on SW-620 is 80.4 µM (inactive); in the experiment with K562, 45.3 µM (inactive); in the experiment on A498, 236 µM (inactive); in the experiment with IGROV-1, 155 µM (inactive); in the experiment with SN12C, 71.6 µM (inactive); in the experiment on A549, 327 µM (inactive). For the same molecule, the GI50 in the experiment on DU-145 was 268 µM (inactive); with SNB-19 it was 251 µM (inactive); in the experiment with LOX IMVI it was 40.4 µM (inactive); in the experiment on HCT-15, 63 µM; in the experiment on HT-29, 78.7 µM (inactive); in the experiment with HCC 2998, 271 µM (inactive). Besides, the GI50 with HOP-62 was 154 µM (inactive); in the experiment on RPMI-8226, 20.1 µM (inactive); in the experiment with CCRF-CEM, 49.3 µM (inactive); in the experiment on BT-549, 121 µM (inactive); in the experiment with MCF7 it was 93.5 µM (inactive); with PC-3, 132 µM (inactive). Further, the results for the GI50 with NCI-H226 and in the experiment on SR were 247 µM (inactive) and 45.1 µM (inactive), respectively.
Consider `O=C(O)CSCc1cc2c(O)c(c1)Cc1cc(CSCC(=O)O)cc(c1O)Cc1cc(CSCC(=O)O)cc(c1O)Cc1cc(CSCC(=O)O)cc(c1O)C2`, for which the GI50 in the experiment on SW-620, with K562, with A498, in the experiment with IGROV-1, with SN12C and in the experiment on A549 was > 100 µM (inactive) in each case. For the same molecule, the GI50 in the experiment with DU-145 was > 100 µM (inactive); in the experiment with SNB-19, > 100 µM (inactive); with LOX IMVI, > 100 µM (inactive); in the experiment with HCT-15, greater than 100 µM; with HT-29, > 100 µM (inactive); in the experiment with HCC 2998, > 100 µM (inactive). The GI50 in the experiment on HOP-62 was > 100 µM (inactive); in the experiment with RPMI-8226 it was > 100 µM (inactive); in the experiment on CCRF-CEM it was > 100 µM (inactive); in the experiment on BT-549, 29 µM (inactive); in the experiment on MCF7 it was > 100 µM (inactive); with PC-3, > 100 µM (inactive). The results for the GI50 with NCI-H226 and in the experiment on SR were 89.5 µM (inactive) and > 100 µM (inactive), respectively.
On to `Oc1ccccc1-c1nn2c(CCCCCCCCc3nnc4sc(-c5ccccc5O)nn34)nnc2s1`, for which the GI50 was 27.9 µM (inactive) with SW-620; 7.6 µM (inactive) in the experiment on K562; 14.5 µM (inactive) in the experiment on A498; 4.66 µM (inactive) in the experiment with IGROV-1; 19.5 µM (inactive) in the experiment with SN12C; 6 µM (inactive) in the experiment on A549. Moreover, the GI50 with DU-145 is 18 µM (inactive); with SNB-19, 23.7 µM (inactive); in the experiment with LOX IMVI it was 9.46 µM (inactive); in the experiment on HCT-15 it was 7.6 µM; in the experiment with HT-29 it was 11.1 µM (inactive); with HCC 2998, 27.2 µM (inactive). Moreover, the GI50 was 8.71 µM (inactive) in the experiment with HOP-62; 11.1 µM (inactive) with RPMI-8226; 5.42 µM (inactive) in the experiment on CCRF-CEM; 24.2 µM (inactive) with BT-549; 11.1 µM (inactive) with MCF7; 26.5 µM (inactive) in the experiment with PC-3. Also, the values for the GI50 in the experiment with NCI-H226 and in the experiment on SR were > 48.9 µM (inactive) and 3.93 µM (inactive), respectively.
Turning to `Clc1ccc(-c2nc3cc(C45CC6CC(CC(C6)C4)C5)ccc3[nH]2)cc1`, the GI50 was 19.3 µM (inactive) in the experiment on SW-620; < 0.01 µM (active) in the experiment on K562; > 95.7 µM (inactive) in the experiment with A498; > 100 µM (inactive) in the experiment with IGROV-1; 50.5 µM (inactive) in the experiment with SN12C; 14.8 µM (inactive) with A549. For the same molecule, the GI50 is 54 µM (inactive) in the experiment on DU-145; 44.4 µM (inactive) in the experiment with SNB-19; 18.3 µM (inactive) with LOX IMVI; 9.46 µM in the experiment on HCT-15; 3.72 µM (inactive) in the experiment on HT-29; 31.7 µM (inactive) in the experiment on HCC 2998. Moreover, the GI50 with HOP-62 was 37.8 µM (inactive); in the experiment on RPMI-8226, 4.21 µM (inactive); in the experiment with CCRF-CEM, 8.3 µM (inactive); in the experiment with BT-549, 56.6 µM (inactive); in the experiment on MCF7, 18.5 µM (inactive); in the experiment on PC-3, 14.3 µM (inactive). Further, the GI50 was > 65 µM (inactive) with NCI-H226 and 5.64 µM (inactive) with SR.
On to `COc1ccc([C@@]23Oc4cc(OC)cc(OC)c4[C@]2(O)[C@H](O)[C@H](C(=O)N(C)C)[C@H]3c2ccccc2)cc1` [ROCAGLAMIDE], for which the GI50 in the experiment on SW-620 was 0.00299 µM (active); in the experiment with K562, 0.00237 µM (active); with A498, 0.00791 µM (active); with IGROV-1, 0.00612 µM (active); in the experiment with SN12C, 0.00815 µM (active); with A549, 0.00353 µM (active). The GI50 in the experiment with DU-145 was 0.00809 µM (active); with SNB-19, 0.267 µM (active); in the experiment with LOX IMVI, 0.00191 µM (active); in the experiment with HCT-15, 0.0176 µM; with HT-29, 0.00224 µM (active); with HCC 2998, 0.00289 µM (active). Moreover, the GI50 with HOP-62 was 0.00973 µM (active); with RPMI-8226, 0.00555 µM (active); in the experiment with CCRF-CEM, 0.00366 µM (active); with BT-549, 0.0583 µM (active); with MCF7, 0.00292 µM (active); in the experiment with PC-3, 0.00836 µM (active). Besides, the GI50 in the experiment with NCI-H226 is 0.0113 µM (active); in the experiment with SR, 0.00162 µM (active).
As to `N#CC1=C(S)N(C2OC(CO)C(O)C(O)C2O)C(c2ccccc2)=CC1c1cccs1` (stereo not given), the GI50 with SW-620 is 16.6 µM (inactive); in the experiment on K562, 31.1 µM (inactive); in the experiment on A498 it was > 10 µM (inactive); in the experiment on IGROV-1, 22.6 µM (inactive); in the experiment on SN12C, 14.7 µM (inactive); with A549, 20 µM (inactive). The GI50 in the experiment with DU-145 was > 10 µM (inactive); with SNB-19 it was > 10 µM (inactive); in the experiment with LOX IMVI, 18.7 µM (inactive); in the experiment with HCT-15, 32.7 µM; with HT-29, 17 µM (inactive); in the experiment with HCC 2998, 21.7 µM (inactive). Further, the GI50 was 22.1 µM (inactive) with HOP-62; 26.3 µM (inactive) in the experiment with RPMI-8226; 22.3 µM (inactive) in the experiment on CCRF-CEM; 16.1 µM (inactive) with BT-549; 15.3 µM (inactive) in the experiment on MCF7; 15.1 µM (inactive) in the experiment with PC-3. The figures for the GI50 with NCI-H226 and in the experiment with SR were 16.6 µM (inactive) and 23 µM (inactive), respectively.
Turning to `COCCNC1CCC(=O)c2[nH]c3ccccc3c21` (stereo not given), the GI50 with SW-620, in the experiment on K562, in the experiment with A498, with IGROV-1, in the experiment with SN12C and with A549 was > 100 µM (inactive) each time. For the same molecule, the GI50 in the experiment on DU-145 is > 100 µM (inactive); in the experiment on SNB-19, > 100 µM (inactive); with LOX IMVI it was 94.4 µM (inactive); in the experiment with HCT-15 it was greater than 100 µM; with HT-29, > 100 µM (inactive); in the experiment on HCC 2998, > 100 µM (inactive). In addition, the GI50 in the experiment with HOP-62, in the experiment on RPMI-8226, with CCRF-CEM, in the experiment with BT-549, in the experiment with MCF7 and with PC-3 was > 100 µM (inactive) in each case. The GI50 in the experiment with NCI-H226 and in the experiment with SR was > 100 µM (inactive) in each case.
